# Read-outs that look alike come from different tables or passages of the source.
# How the values were obtained:
# [1] = tested on: Amaranthus rudis (AMATA), tall water hemp; assay: Postemergence herbicide evaluation, growth of Amaranthus rudis (AMATA); assay type: in vivo; conditions: Amaranthus tuberculatus, post-emergence, read-out: Ave. AMATA, percent reduction in plant size relative to the untreated control
# [2] = tested on: Ambrosia artemisiifolia (AMBEL), common ragweed; assay: Postemergence herbicide evaluation, growth of Ambrosia artemisiifolia (AMBEL); assay type: in vivo; conditions: Ambrosia artemisiifolia, post-emergence, read-out: AVE. AMBEL, percent reduction in plant size relative to the untreated control
# [3] = tested on: Abutilon theophrasti (ABUTH), velvetleaf; assay: Postemergence herbicide evaluation, growth of Abutilon theophrasti (ABUTH); assay type: in vivo; conditions: Abutilon theophrasti, post-emergence, read-out: AVE. ABUTH, percent reduction in plant size relative to the untreated control
# [4] = tested on: Chenopodium album (CHEAL), common lambsquarters; assay: Postemergence herbicide evaluation, growth of Chenopodium album (CHEAL); assay type: in vivo; conditions: Chenopodium album, post-emergence, read-out: Ave. CHEAL, percent reduction in plant size relative to the untreated control
# [5] = tested on: glyphosate resistant Conyza canadensis (L.) (ERICA), horseweed; assay: Postemergence herbicide evaluation, growth of Conyza canadensis (ERICA); assay type: in vivo; conditions: Erigeron canadensis, post-emergence, read-out: Ave. ERICA, percent reduction in plant size relative to the untreated control
# [6] = Volatility of compounds measured by thermogravimetric analysis (TGA); assay type: physicochemical
# [7] = tested on: weeds ABUTH, AMATA, AMBEL, CHEAL, ERICA; assay: Postemergence herbicide evaluation, overall average % weed control (ABUTH, AMATA, AMBEL, CHEAL, ERICA); assay type: in vivo; conditions: post-emergence, read-out: Overall Ave % Weed Control
SMILES,pest or weed control at 280 g/ha ([1]; 168 h),pest or weed control at 560 g/ha ([1]; 168 h),pest or weed control at 280 g/ha ([1]; 336 h),pest or weed control at 560 g/ha ([1]; 336 h),pest or weed control at 280 g/ha ([1]; 504 h),pest or weed control at 560 g/ha ([1]; 504 h),pest or weed control at 280 g/ha ([2]; 168 h),pest or weed control at 560 g/ha ([2]; 168 h),pest or weed control at 280 g/ha ([2]; 336 h),pest or weed control at 560 g/ha ([2]; 336 h),pest or weed control at 280 g/ha ([2]; 504 h),pest or weed control at 560 g/ha ([2]; 504 h),pest or weed control at 280 g/ha ([3]; 168 h),pest or weed control at 560 g/ha ([3]; 168 h),pest or weed control at 280 g/ha ([3]; 336 h),pest or weed control at 560 g/ha ([3]; 336 h),pest or weed control at 280 g/ha ([3]; 504 h),pest or weed control at 560 g/ha ([3]; 504 h),pest or weed control at 280 g/ha ([4]; 168 h),pest or weed control at 560 g/ha ([4]; 168 h),further results
"O=C(COc1ccc(Cl)cc1Cl)Nc1ccncc1 [Compound D1, 2-(2,4-Dichlorophenoxy)-N-(pyridin-4-yl)acetamide]",68%,78%,75%,85%,78%,90%,60%,65%,89%,94%,78%,99%,78%,78%,88%,80%,93%,87%,68%,75%,"pest or weed control at 280 g/ha ([4]; 336 h): 78%; pest or weed control at 560 g/ha ([4]; 336 h): 85%; pest or weed control at 280 g/ha ([4]; 504 h): 97%; pest or weed control at 560 g/ha ([4]; 504 h): 93%; pest or weed control at 280 g/ha ([5]; 168 h): 70%; pest or weed control at 560 g/ha ([5]; 168 h): 65%; pest or weed control at 280 g/ha ([5]; 336 h): 88%; pest or weed control at 560 g/ha ([5]; 336 h): 90%; pest or weed control at 280 g/ha ([5]; 504 h): 99%; pest or weed control at 560 g/ha ([5]; 504 h): 97%; TGA Data (rate of weight loss, volatility) [6]: 0.05 µg/min; pest or weed control at 280 g/ha ([7]; 168 h): 69%; pest or weed control at 560 g/ha ([7]; 168 h): 72%; pest or weed control at 280 g/ha ([7]; 336 h): 83%; pest or weed control at 560 g/ha ([7]; 336 h): 87%; pest or weed control at 280 g/ha ([7]; 504 h): 89%; pest or weed control at 560 g/ha ([7]; 504 h): 93%"
"O=C(COc1ccc(Cl)cc1Cl)n1ncc2ccccc21 [Compound D3, 2-(2,4-Dichlorophenoxy)-1-(1H-indazol-1-yl)ethanone]",70%,73%,73%,80%,75%,78%,63%,68%,75%,90%,73%,95%,30%,48%,25%,43%,23%,35%,68%,68%,"pest or weed control at 280 g/ha ([4]; 336 h): 63%; pest or weed control at 560 g/ha ([4]; 336 h): 70%; pest or weed control at 280 g/ha ([4]; 504 h): 63%; pest or weed control at 560 g/ha ([4]; 504 h): 70%; pest or weed control at 280 g/ha ([5]; 168 h): 63%; pest or weed control at 560 g/ha ([5]; 168 h): 68%; pest or weed control at 280 g/ha ([5]; 336 h): 83%; pest or weed control at 560 g/ha ([5]; 336 h): 85%; pest or weed control at 280 g/ha ([5]; 504 h): 84%; pest or weed control at 560 g/ha ([5]; 504 h): 88%; TGA Data (rate of weight loss, volatility) [6]: 0.03 µg/min; pest or weed control at 280 g/ha ([7]; 168 h): 59%; pest or weed control at 560 g/ha ([7]; 168 h): 65%; pest or weed control at 280 g/ha ([7]; 336 h): 64%; pest or weed control at 560 g/ha ([7]; 336 h): 74%; pest or weed control at 280 g/ha ([7]; 504 h): 63%; pest or weed control at 560 g/ha ([7]; 504 h): 73%"
